Measurements reported in patent US20180030500A1, “ENRICHMENT AND SELECTIVE CULTURE OF MYCOBACTERIA” (priority 2015, published 2018).
Read-outs that look alike come from different tables or passages of the source.

Key:
[1] = system: Pseudomonas aeruginosa; conditions: 50 strains, 7 days
[2] = system: Enterobacteria; conditions: 7 strains, 7 days
[3] = system: Mycobacteria; conditions: 20 strains, 7 days
[4] = system: Burkholderia stabilis (LMG18870); test: Sensitivity to C-390 in medium W; assay type: cell-based; parameters: key: NG: no growth; Tr: traces
Procedure: (§1) An evaluation of the sensitivity to C-390 of various microorganisms capable of infecting the airways was carried out. This evaluation was carried out using medium W of example 4, containing a variable concentration of C-390. Table 10 below collates the observations collected with regard to the intensity of growth of the strains tested as a function of the C-390 concentration of the medium. The abbreviations NG (“no growth”) and Tr (“traces”) signify that no growth was observed or only a few not very significant traces.

[5] = system: Burkholderia pyrrocinia (LMG 21824); test: Sensitivity to C-390 in medium W; assay type: cell-based; parameters: key: NG: no growth; Tr: traces
Procedure: as §1

[6] = system: Burkholderia multivorans (672832Y); test: Sensitivity to C-390 in medium W; assay type: cell-based; parameters: key: NG: no growth; Tr: traces
Procedure: as §1

[7] = system: Aspergillus flavus (ENV); test: Sensitivity to C-390 in medium W; assay type: cell-based; parameters: key: NG: no growth; Tr: traces
Procedure: as §1

[8] = system: Fusarium oxysporum (ENV); test: Sensitivity to C-390 in medium W; assay type: cell-based; parameters: key: NG: no growth; Tr: traces
Procedure: as §1

[9] = system: Aspergillus terreus (Anon); test: Sensitivity to C-390 in medium W; assay type: cell-based; parameters: key: NG: no growth; Tr: traces
Procedure: as §1

[10] = system: Scedosporium prolificans (Anon); test: Sensitivity to C-390 in medium W; assay type: cell-based; parameters: key: NG: no growth; Tr: traces
Procedure: as §1

[11] = system: Aspergillus fumigatus (Anon); test: Sensitivity to C-390 in medium W; assay type: cell-based; parameters: key: NG: no growth; Tr: traces
Procedure: as §1

[12] = system: Burkholderia stabilis (716237); test: Sensitivity to C-390 in medium W; assay type: cell-based; parameters: key: NG: no growth; Tr: traces
Procedure: as §1

[13] = system: Burkholderia vietnamiensis (744978N); test: Sensitivity to C-390 in medium W; assay type: cell-based; parameters: key: NG: no growth; Tr: traces
Procedure: as §1

[14] = system: Scedosporium apiospermum (Anon); test: Sensitivity to C-390 in medium W; assay type: cell-based; parameters: key: NG: no growth; Tr: traces
Procedure: as §1

[15] = system: Burkholderia contaminans (40007X); test: Sensitivity to C-390 in medium W; assay type: cell-based; parameters: key: NG: no growth; Tr: traces
Procedure: as §1

[16] = system: Burkholderia multivorans (645914C); test: Sensitivity to C-390 in medium W; assay type: cell-based; parameters: key: NG: no growth; Tr: traces
Procedure: as §1

[17] = system: Burkholderia cepacia (LMG 18821); test: Sensitivity to C-390 in medium W; assay type: cell-based; parameters: key: NG: no growth; Tr: traces
Procedure: as §1

[18] = system: Burkholderia anthina (20983); test: Sensitivity to C-390 in medium W; assay type: cell-based; parameters: key: NG: no growth; Tr: traces
Procedure: as §1

[19] = system: Burkholderia ambifaria (LMG 19467); test: Sensitivity to C-390 in medium W; assay type: cell-based; parameters: key: NG: no growth; Tr: traces
Procedure: as §1

[20] = selective agent 32 mg/l in medium L
[21] = selective agent 64 mg/l in medium L
[22] = selective agent 128 mg/l in medium L

## CCN(CC)c1ccc(C2(Cl)c3ccccc3N(c3ccccc3)c3ccccc32)cc1 [Medium C-390, 9-chloro-9-(4′-diethylamino)phenyl-9,10-dihydro-10-phenylacridine]
[1]; [20]
  Number of strains having shown growth: 46
  Percentage of strains having shown growth: (92%)
[1]; [21]
  Number of strains having shown growth: 45
  Percentage of strains having shown growth: (90%)
[1]; [22]
  Number of strains having shown growth: 35
  Percentage of strains having shown growth: (70%)
[2]; [20]
  Number of strains having shown growth: 0
[2]; [21]
  Number of strains having shown growth: 0
[2]; [22]
  Number of strains having shown growth: 0
[3]; [20]
  Number of strains having shown growth: 19
  Percentage of strains having shown growth: (95%)
[3]; [21]
  Number of strains having shown growth: 19
  Percentage of strains having shown growth: (95%)
[3]; [22]
  Number of strains having shown growth: 19
  Percentage of strains having shown growth: (95%)
[4]; C-390 2 mg/l in medium W
  intensity of growth: NG
[4]; C-390 4 mg/l in medium W
  intensity of growth: NG
[4]; C-390 8 mg/l in medium W
  intensity of growth: NG
[4]; C-390 16 mg/l in medium W
  intensity of growth: NG
[4]; C-390 32 mg/l in medium W
  intensity of growth: NG
[5]; C-390 4 mg/l in medium W
  intensity of growth: NG
[5]; C-390 8 mg/l in medium W
  intensity of growth: NG
[5]; C-390 16 mg/l in medium W
  intensity of growth: NG
[5]; C-390 32 mg/l in medium W
  intensity of growth: NG
[6]; C-390 4 mg/l in medium W
  intensity of growth: Tr
[6]; C-390 8 mg/l in medium W
  intensity of growth: NG
[6]; C-390 16 mg/l in medium W
  intensity of growth: NG
[6]; C-390 32 mg/l in medium W
  intensity of growth: NG
[7]; C-390 8 mg/l in medium W
  intensity of growth: NG
[7]; C-390 16 mg/l in medium W
  intensity of growth: NG
[7]; C-390 32 mg/l in medium W
  intensity of growth: NG
[8]; C-390 8 mg/l in medium W
  intensity of growth: NG
[8]; C-390 16 mg/l in medium W
  intensity of growth: NG
[8]; C-390 32 mg/l in medium W
  intensity of growth: NG
[9]; C-390 1 mg/l in medium W
  intensity of growth: NG
[9]; C-390 2 mg/l in medium W
  intensity of growth: NG
[9]; C-390 4 mg/l in medium W
  intensity of growth: NG
[9]; C-390 8 mg/l in medium W
  intensity of growth: NG
[9]; C-390 16 mg/l in medium W
  intensity of growth: NG
[9]; C-390 32 mg/l in medium W
  intensity of growth: NG
[10]; C-390 0.5 mg/l in medium W
  intensity of growth: NG
[10]; C-390 1 mg/l in medium W
  intensity of growth: NG
[10]; C-390 2 mg/l in medium W
  intensity of growth: NG
[10]; C-390 4 mg/l in medium W
  intensity of growth: NG
[10]; C-390 8 mg/l in medium W
  intensity of growth: NG
[10]; C-390 16 mg/l in medium W
  intensity of growth: NG
[10]; C-390 32 mg/l in medium W
  intensity of growth: NG
[11]; C-390 0.5 mg/l in medium W
  intensity of growth: Tr
[11]; C-390 1 mg/l in medium W
  intensity of growth: NG
[11]; C-390 2 mg/l in medium W
  intensity of growth: NG
[11]; C-390 4 mg/l in medium W
  intensity of growth: NG
[11]; C-390 8 mg/l in medium W
  intensity of growth: NG
[11]; C-390 16 mg/l in medium W
  intensity of growth: NG
[11]; C-390 32 mg/l in medium W
  intensity of growth: NG
[12]; C-390 4 mg/l in medium W
  intensity of growth: Tr
[12]; C-390 8 mg/l in medium W
  intensity of growth: Tr
[12]; C-390 16 mg/l in medium W
  intensity of growth: NG
[12]; C-390 32 mg/l in medium W
  intensity of growth: NG
[13]; C-390 1 mg/l in medium W
  intensity of growth: Tr
[13]; C-390 2 mg/l in medium W
  intensity of growth: NG
[13]; C-390 4 mg/l in medium W
  intensity of growth: NG
[13]; C-390 8 mg/l in medium W
  intensity of growth: NG
[13]; C-390 16 mg/l in medium W
  intensity of growth: NG
[13]; C-390 32 mg/l in medium W
  intensity of growth: NG
[14]; C-390 2 mg/l in medium W
  intensity of growth: NG
[14]; C-390 4 mg/l in medium W
  intensity of growth: NG
[14]; C-390 8 mg/l in medium W
  intensity of growth: NG
[14]; C-390 16 mg/l in medium W
  intensity of growth: NG
[14]; C-390 32 mg/l in medium W
  intensity of growth: NG
[15]; C-390 2 mg/l in medium W
  intensity of growth: Tr
[15]; C-390 4 mg/l in medium W
  intensity of growth: NG
[15]; C-390 8 mg/l in medium W
  intensity of growth: NG
[15]; C-390 16 mg/l in medium W
  intensity of growth: NG
[15]; C-390 32 mg/l in medium W
  intensity of growth: NG
[16]; C-390 2 mg/l in medium W
  intensity of growth: NG
[16]; C-390 4 mg/l in medium W
  intensity of growth: NG
[16]; C-390 8 mg/l in medium W
  intensity of growth: NG
[16]; C-390 16 mg/l in medium W
  intensity of growth: NG
[16]; C-390 32 mg/l in medium W
  intensity of growth: NG
[17]; C-390 16 mg/l in medium W
  intensity of growth: NG
[17]; C-390 32 mg/l in medium W
  intensity of growth: NG
[18]; C-390 1 mg/l in medium W
  intensity of growth: Tr
[18]; C-390 2 mg/l in medium W
  intensity of growth: NG
[18]; C-390 4 mg/l in medium W
  intensity of growth: NG
[18]; C-390 8 mg/l in medium W
  intensity of growth: NG
[18]; C-390 16 mg/l in medium W
  intensity of growth: NG
[18]; C-390 32 mg/l in medium W
  intensity of growth: NG
[19]; C-390 0.5 mg/l in medium W
  intensity of growth: NG
[19]; C-390 1 mg/l in medium W
  intensity of growth: NG
[19]; C-390 2 mg/l in medium W
  intensity of growth: NG
[19]; C-390 4 mg/l in medium W
  intensity of growth: NG
[19]; C-390 8 mg/l in medium W
  intensity of growth: NG
[19]; C-390 16 mg/l in medium W
  intensity of growth: NG
[19]; C-390 32 mg/l in medium W
  intensity of growth: NG
